Counter-ions that a name gives are not always drawn.
How the values were obtained:
Format in all cases: in vivo
[1] = PK following intravenous administration in rats; details: for AUC: IV 1 mg/kg, jugular vein
Method: The bioavailability of 9-[(2,2, dimethyl-propyl amino)-methyl]-minocycline following intravenous administration in rats was studied. The freebase (“FB”) and the HCl salt (“HCl salt”) of 9-[(2,2, dimethyl-propyl amino)-methyl]-minocycline were used. All formulations were prepared fresh on the day of the experiment. Samples for pharmacokinetic analysis were collected from a cannula within the carotid artery of the rats. Intravenous doses of (1 mg/kg) were administered to rats through cannulas in either the jugular or portal veins.

[2] = PK and oral bioavailability following dosing via oral gavage in rats
Method: Solutions of 9-[(2,2, dimethyl-propyl amino)-methyl]-minocycline freebase (5 mg/kg [2 ml/kg]) were administered by oral gavage. The solutions were composed of 9-[(2,2, dimethyl-propyl amino)-methyl]-minocycline alone or in combination with bioavailability enhancing agents to assess their effect on oral bioavailability.
The % F was calculated using the IV data presented in Example 1 and the equation: % F=Oral AUC/IV AUC.

[3] = PK and bioavailability following intra-duodenal administration in rats
Method: In order to measure the effect of delivering 9-[(2,2, dimethyl-propyl amino)-methyl]-minocycline directly into the duodenum, rats bearing duodenal cannulas were administered 9-[(2,2, dimethyl-propyl amino)-methyl]-minocycline freebase alone or in combination with bioavailability enhancing agents to assess their effects on bioavailability.

[4] = Effects of permeability enhancers on bioavailability, oral gavage in rats
Method: As a control, a solution of 9-[(2,2, dimethyl-propyl amino)-methyl]-minocycline freebase (“freebase”) was prepared using sterile water and the final pH was adjusted to ˜5. To prepare the sodium caprate (sodium decanoate, a compound that increases paracellular permeability) containing solution, the freebase was first dissolved in sterile water and sodium caprate was then added to a final concentration of 13 mM. The resulting solution was administered to rats via oral gavage without pH adjustment. The solution of freebase containing 1.5% chitosan was then prepared by first dissolving the freebase in sterile water and then adjusting the pH of this solution (pH ˜8.1) to a final pH ˜5 using 1N HCl. Chitosan was then added to a final concentration of 1.5% and the resulting solution was administered to rats via oral gavage as a slurry.

[5] = rats with duodenal cannulas, intra-duodenal administration

AUC ([1]; fasted, 1 mg/kg)	differences in pharmacokinetic parameters, freebase vs HCl salt ([1]; IV, fasted animals)	effects of first pass hepatic elimination on pharmacokinetics ([1]; after IV dosing)	% F (oral bioavailability) ([2]; oral gavage 5 mg/kg, calculated using the IV data of Example 1) [%]	AUC ([2]; oral gavage, 5 mg/kg [2 ml/kg] solution) [ng·h/mL]	% F [3, 5] [%]	AUC [3, 5] [ng·h/mL]	change in AUC when administered directly to the duodenum ([3]; rats, intra-duodenal)	% F [4] [%]	AUC [4] [ng·h/mL]	AUC ([1]; fed) [µg·h/mL]	total exposure (AUC) and clearance, portal vein vs jugular vein ([1]; IV, fasted animals)	tendency for higher clearance in a fed group ([1]; IV, fed vs fasted) [%]	Structure (SMILES)
0.57 (0.50; 0.63) ug*hr/mL	no significant differences	no significant effects	11.7 ± 4.1	330 ± 120	15.4 ± 5.2	440 ± 150	significant increase in AUC	11.7 ± 4.1	330 ± 120	–	–	–	CN(C)c1cc(CNCC(C)(C)C)c(O)c2c1C[C@H]1C[C@H]3[C@H](N(C)C)C(O)=C(C(N)=O)C(=O)[C@@]3(O)C(O)=C1C2=O [FB, 9-[(2,2, dimethyl-propylamino)-methyl]-minocycline]
0.59 (0.45; 0.73) ug*hr/mL	no significant differences	–	–	–	–	–	–	–	–	0.46 ± 0.04	equal	~22	CN(C)c1cc(CNCC(C)(C)C)c(O)c2c1C[C@H]1C[C@H]3[C@H](N(C)C)C(O)=C(C(N)=O)C(=O)[C@@]3(O)C(O)=C1C2=O [HCl salt, 9-[(2,2, dimethyl-propylamino)-methyl]-minocycline]

— patent publication US9078811B2, “Methods of increasing oral bioavailability of tetracyclines” (Paratek Pharmaceuticals, Inc., priority 2006, dated 2015)
